From paper PMC6858497 (The Journal of physiology, 2019)
Where “and” joins values, the source holds several entries; their conditions need not be identical. Equal entries are not always repeated.

Experiments:
Type in all cases: cell-based
GluN1–1a/2BC1/2DC2 = GluN1–1a/2BC1/2DC2 (Rattus norvegicus, UniProt P35439+Q00959+Q00960+Q62645, A876H/F846L/G856D/H848F/K857R/M851T/M860L/Q845K/R869K/V861L/V866F); experiment: Two-electrode voltage-clamp recordings, Xenopus oocytes; settings: isoform 1a
GluN1–1a/2D = GluN1–1a/2D (Rattus norvegicus, UniProt P35439+Q62645); experiment: as above
GluN1–1b/2B = GluN1–1b/2B (Rattus norvegicus, UniProt P35439+Q00960); experiment: as above; settings: at 10 μM; isoform 1b
GluN1–1b/2BC1/2DC2 = GluN1–1b/2BC1/2DC2 (Rattus norvegicus, UniProt P35439+Q00959+Q00960+Q62645, A876H/F846L/G856D/H848F/K857R/M851T/M860L/Q845K/R869K/V861L/V866F); experiment: as above; settings: at 10 μM; isoform 1b
GluN1–1b/2D = GluN1–1b/2D (Rattus norvegicus, UniProt P35439+Q62645); experiment: as above; settings: at 10 μM; isoform 1b
GluN1–1a/2B = GluN1–1a/2B (Rattus norvegicus, UniProt P35439+Q00960); experiment: as above; settings: agonist concentration-response, isoform 1a
[1] = molecular target: GluN1–1a A/A (GluN1/2A/2A) (Rattus norvegicus, UniProt P35439+Q00959); experiment: Outside-out patch-clamp recordings, fast application
[2] = molecular target: GluN1–1a AC1/AC2 (GluN1/2AC1/2AC2) (Rattus norvegicus, UniProt P35439+Q00959); experiment: as above
GluN1–1a AC1/BC2 = GluN1–1a AC1/BC2 (Rattus norvegicus, UniProt P35439+Q00959+Q00960, A876H/F846L/G856D/H848F/K857R/M851T/M860L/Q845K/V861L); experiment: as above
GluN1–1a B/B = GluN1–1a B/B (Rattus norvegicus, UniProt P35439+Q00960); experiment: as above
Sequence of GluN1–1a B/B (Q00960 27-1482, other chains not shown): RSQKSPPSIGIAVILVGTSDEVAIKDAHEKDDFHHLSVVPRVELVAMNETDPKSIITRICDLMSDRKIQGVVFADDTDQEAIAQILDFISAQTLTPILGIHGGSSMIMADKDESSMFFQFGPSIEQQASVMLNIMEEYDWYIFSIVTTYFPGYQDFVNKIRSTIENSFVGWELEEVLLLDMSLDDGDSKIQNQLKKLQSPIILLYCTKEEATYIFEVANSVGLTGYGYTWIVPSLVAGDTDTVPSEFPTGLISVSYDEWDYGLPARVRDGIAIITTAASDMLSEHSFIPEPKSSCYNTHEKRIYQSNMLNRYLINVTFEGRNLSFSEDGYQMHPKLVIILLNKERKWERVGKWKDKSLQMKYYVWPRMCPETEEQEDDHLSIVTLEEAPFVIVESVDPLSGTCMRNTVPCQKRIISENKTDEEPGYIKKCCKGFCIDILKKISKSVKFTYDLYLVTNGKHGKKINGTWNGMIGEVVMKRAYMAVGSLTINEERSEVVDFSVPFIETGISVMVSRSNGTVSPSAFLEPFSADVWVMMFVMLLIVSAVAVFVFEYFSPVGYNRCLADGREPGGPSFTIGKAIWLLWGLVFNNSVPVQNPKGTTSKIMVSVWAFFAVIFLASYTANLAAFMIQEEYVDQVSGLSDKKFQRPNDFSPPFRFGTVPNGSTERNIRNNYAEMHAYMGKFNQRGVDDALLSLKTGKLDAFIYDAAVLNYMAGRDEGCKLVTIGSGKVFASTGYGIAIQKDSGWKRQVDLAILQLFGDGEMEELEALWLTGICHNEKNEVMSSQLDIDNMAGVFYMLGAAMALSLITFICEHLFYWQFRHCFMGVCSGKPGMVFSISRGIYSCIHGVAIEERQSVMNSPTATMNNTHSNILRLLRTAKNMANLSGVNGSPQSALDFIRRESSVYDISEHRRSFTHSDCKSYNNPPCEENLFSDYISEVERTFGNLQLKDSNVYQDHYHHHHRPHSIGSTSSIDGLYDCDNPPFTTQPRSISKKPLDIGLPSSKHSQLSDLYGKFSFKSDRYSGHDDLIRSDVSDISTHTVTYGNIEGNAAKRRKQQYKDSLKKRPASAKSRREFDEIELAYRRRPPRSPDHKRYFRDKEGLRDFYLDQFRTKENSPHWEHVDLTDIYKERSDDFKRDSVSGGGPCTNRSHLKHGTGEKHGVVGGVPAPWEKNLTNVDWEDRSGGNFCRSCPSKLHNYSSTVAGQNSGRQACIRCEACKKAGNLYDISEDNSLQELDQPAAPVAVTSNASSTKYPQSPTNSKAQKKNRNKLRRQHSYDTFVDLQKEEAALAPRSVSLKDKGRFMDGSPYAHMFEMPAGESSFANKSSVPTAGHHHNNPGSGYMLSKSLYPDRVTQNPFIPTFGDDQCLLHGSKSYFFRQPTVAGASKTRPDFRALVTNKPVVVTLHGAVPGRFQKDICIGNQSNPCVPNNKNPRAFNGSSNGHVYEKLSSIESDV

GluN1–1a BC1/BC2 = GluN1–1a BC1/BC2 (Rattus norvegicus, UniProt P35439+Q00959+Q00960, A876H/F846L/G856D/H848F/K857R/M851T/M860L/Q845K/V861L); experiment: as above
GluN1–1a BC1/DC2 = GluN1–1a BC1/DC2 (Rattus norvegicus, UniProt P35439+Q00959+Q00960+Q62645, A876H/F846L/G856D/H848F/K857R/M851T/M860L/Q845K/R869K/V861L/V866F); experiment: as above
GluN1–1a D/D = GluN1–1a D/D (Rattus norvegicus, UniProt P35439+Q62645); experiment: as above
GluN1–1a DC1/DC2 = GluN1–1a DC1/DC2 (Rattus norvegicus, UniProt P35439+Q00959+Q62645, R869K/V866F); experiment: as above
[3] = molecular target: GluN1–1b A/A (GluN1/2A/2A) (Rattus norvegicus, UniProt P35439+Q00959); experiment: as above
Sequence of GluN1–1b A/A (GluN1/2A/2A) (Q00959 23-1464, other chains not shown): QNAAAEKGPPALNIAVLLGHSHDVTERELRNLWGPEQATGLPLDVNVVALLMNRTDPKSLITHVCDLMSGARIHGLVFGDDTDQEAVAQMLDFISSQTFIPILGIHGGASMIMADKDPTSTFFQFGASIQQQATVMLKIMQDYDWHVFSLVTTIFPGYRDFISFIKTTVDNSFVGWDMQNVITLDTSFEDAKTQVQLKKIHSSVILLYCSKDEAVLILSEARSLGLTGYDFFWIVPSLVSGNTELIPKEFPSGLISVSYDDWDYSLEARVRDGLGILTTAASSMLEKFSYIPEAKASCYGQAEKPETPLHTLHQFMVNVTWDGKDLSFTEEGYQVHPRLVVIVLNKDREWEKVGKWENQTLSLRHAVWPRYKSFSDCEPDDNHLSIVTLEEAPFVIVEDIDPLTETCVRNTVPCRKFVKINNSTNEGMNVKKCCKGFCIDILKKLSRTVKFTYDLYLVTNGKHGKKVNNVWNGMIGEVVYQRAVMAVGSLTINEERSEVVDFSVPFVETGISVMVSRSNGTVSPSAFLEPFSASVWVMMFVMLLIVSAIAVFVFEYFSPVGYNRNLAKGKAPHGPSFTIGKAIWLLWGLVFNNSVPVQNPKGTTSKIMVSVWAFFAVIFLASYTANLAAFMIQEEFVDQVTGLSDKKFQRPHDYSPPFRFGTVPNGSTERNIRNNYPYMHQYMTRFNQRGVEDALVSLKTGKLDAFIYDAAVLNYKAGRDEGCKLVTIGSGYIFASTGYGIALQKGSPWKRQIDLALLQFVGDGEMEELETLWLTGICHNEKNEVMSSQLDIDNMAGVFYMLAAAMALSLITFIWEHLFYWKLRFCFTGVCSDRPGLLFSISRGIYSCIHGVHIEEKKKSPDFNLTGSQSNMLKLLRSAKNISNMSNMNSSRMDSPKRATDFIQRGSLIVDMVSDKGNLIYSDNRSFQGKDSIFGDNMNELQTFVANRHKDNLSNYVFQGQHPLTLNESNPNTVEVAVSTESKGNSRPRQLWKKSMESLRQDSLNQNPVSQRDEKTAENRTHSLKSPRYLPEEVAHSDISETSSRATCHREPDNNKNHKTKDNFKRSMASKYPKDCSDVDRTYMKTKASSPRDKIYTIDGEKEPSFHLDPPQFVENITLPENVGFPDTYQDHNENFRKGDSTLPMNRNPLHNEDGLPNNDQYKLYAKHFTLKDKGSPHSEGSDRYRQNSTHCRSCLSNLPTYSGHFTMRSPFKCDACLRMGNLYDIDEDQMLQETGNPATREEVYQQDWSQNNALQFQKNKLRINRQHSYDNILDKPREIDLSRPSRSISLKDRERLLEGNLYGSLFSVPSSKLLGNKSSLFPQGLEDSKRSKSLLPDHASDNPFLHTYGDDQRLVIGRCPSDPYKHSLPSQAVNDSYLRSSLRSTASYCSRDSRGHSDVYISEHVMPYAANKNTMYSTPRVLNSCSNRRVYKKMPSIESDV

GluN1–1b AC1/AC2 = GluN1–1b AC1/AC2 (Rattus norvegicus, UniProt P35439+Q00959); experiment: as above
GluN1–1b AC1/BC2 = GluN1–1b AC1/BC2 (Rattus norvegicus, UniProt P35439+Q00959+Q00960, A876H/F846L/G856D/H848F/K857R/M851T/M860L/Q845K/V861L); experiment: as above
GluN1–1b B/B = GluN1–1b B/B (Rattus norvegicus, UniProt P35439+Q00960); experiment: as above
Sequence of GluN1–1b B/B (Q00960 27-1482, other chains not shown): as the sequence (Q00960 27-1482, other chains not shown) above

GluN1–1b BC1/BC2 = GluN1–1b BC1/BC2 (Rattus norvegicus, UniProt P35439+Q00959+Q00960, A876H/F846L/G856D/H848F/K857R/M851T/M860L/Q845K/V861L); experiment: as above
GluN1–1b BC1/DC2 = GluN1–1b BC1/DC2 (Rattus norvegicus, UniProt P35439+Q00959+Q00960+Q62645, A876H/F846L/G856D/H848F/K857R/M851T/M860L/Q845K/R869K/V861L/V866F); experiment: as above
GluN1–1b D/D = GluN1–1b D/D (Rattus norvegicus, UniProt P35439+Q62645); experiment: as above
GluN1–1b DC1/DC2 = GluN1–1b DC1/DC2 (Rattus norvegicus, UniProt P35439+Q00959+Q62645, R869K/V866F); experiment: as above
[4] = 1 mM glutamate 3–5 ms, 100 μM glycine
[5] = weighted deactivation time constant
[6] = deactivation, single-exponential fit
[7] = deactivation, two-exponential fit
[8] = fitted percentage of the fast component

## COc1ccc(OCC2c3cc(OC)c(OC)cc3CCN2C(=O)c2cccc(Cl)c2)cc1 (stereo not drawn) [CIQ]
GluN1–1a/2BC1/2DC2; at 10 μM, relative to control
  Relative Imax: 139% and 139 ± 3%
GluN1–1a/2D; at 10 μM, relative to control, isoform 1a
  Relative Imax: 227% and 227 ± 8%
GluN1–1b/2B
  Relative Imax: 91% and 91 ± 3%
GluN1–1b/2BC1/2DC2
  Relative Imax: 115% and 115 ± 3%
GluN1–1b/2D
  Relative Imax: 197% and 197 ± 8%

## N[C@@H](CCC(=O)O)C(=O)O [glutamate]
GluN1–1a/2B
  nH (Hill coefficient): 1.6
GluN1–1a/2BC1/2DC2; agonist concentration-response
  nH (Hill coefficient): 1.4
GluN1–1a/2D; GluN1 isoform 1a, glutamate with 100 μM glycine, glycine with 300 μM glutamate
  EC50: 270 ± 10 nM
GluN1–1a/2D; agonist concentration-response, isoform 1a
  nH (Hill coefficient): 1.7
[1]; [4]
  rise time (10–90%): 3.9 ± 0.3 ms
[1]; deactivation, single-exponential fit, 1 mM glutamate 3–5 ms, 100 μM glycine
  τfast: 87 ± 7 ms
[1]; [5]
  τw: 87 ± 7^#,$ ms
[2]; [4]
  rise time (10–90%): 4.2 ± 0.9 ms
[2]; [6]
  τfast: 78 ± 13 ms
[2]; [5]
  τw: 78 ± 13 ^*^,#,$ ms
GluN1–1a AC1/BC2; [4]
  rise time (10–90%): 10.9 ± 6.2 ms
GluN1–1a AC1/BC2; [7]
  τfast: 93 ± 27 ms
  τslow: 180 ± 62 ms
GluN1–1a AC1/BC2; [8]
  % fast: 63 ± 19%
GluN1–1a AC1/BC2; [5]
  τw: 140 ± 10 ^*^,#,$ ms
GluN1–1a B/B; [4]
  rise time (10–90%): 14.9 ± 1.2 ms
GluN1–1a B/B; [7]
  τfast: 240 ± 23 ms
  τslow: 1020 ± 72 ms
GluN1–1a B/B; [8]
  % fast: 59 ± 5%
GluN1–1a B/B; [5]
  τw: 548 ± 45 ^*^,$ ms
GluN1–1a BC1/BC2; [4]
  rise time (10–90%): 15.1 ± 2.7 ms
GluN1–1a BC1/BC2; [7]
  τfast: 205 ± 35 ms
  τslow: 1045 ± 129 ms
GluN1–1a BC1/BC2; [8]
  % fast: 58 ± 8%
GluN1–1a BC1/BC2; [5]
  τw: 530 ± 60 ms and 533 ± 58 ^*^,$ ms
GluN1–1a BC1/DC2; [4]
  rise time (10–90%): 10.9 ± 2.5 ms
GluN1–1a BC1/DC2; [7]
  τfast: 516 ± 42 ms
  τslow: 3521 ± 446 ms
GluN1–1a BC1/DC2; [8]
  % fast: 54 ± 6%
GluN1–1a BC1/DC2; [5]
  τw: 1770 ± 120 ms and 1767 ± 117 ^*^,#,$ ms
GluN1–1a D/D; [4]
  rise time (10–90%): 6.2 ± 0.7 ms
GluN1–1a D/D; [7]
  τfast: 832 ± 146 ms
  τslow: 7436 ± 890 ms
GluN1–1a D/D; [8]
  % fast: 24 ± 3%
GluN1–1a D/D; [5]
  τw: 5714 ± 458 ^*^,# ms
GluN1–1a DC1/DC2; [4]
  rise time (10–90%): 8.6 ± 4.8 ms
GluN1–1a DC1/DC2; [7]
  τfast: 527 ± 225 ms
  τslow: 6912 ± 848 ms
GluN1–1a DC1/DC2; [8]
  % fast: 17 ± 7%
GluN1–1a DC1/DC2; [5]
  τw: 5700 ± 560 ms and 5700 ± 561 ^*^,# ms
[3]; [4]
  rise time (10–90%): 4.8 ± 0.3 ms
[3]; [6]
  τfast: 56 ± 6 ms
[3]; [5]
  τw: 56 ± 6^#,$ ms
GluN1–1b AC1/AC2; [4]
  rise time (10–90%): 6.3 ± 2.8 ms
GluN1–1b AC1/AC2; [6]
  τfast: 53 ± 7 ms
GluN1–1b AC1/AC2; [5]
  τw: 53 ± 7^#,$ ms
GluN1–1b AC1/BC2; [4]
  rise time (10–90%): 3.7 ± 0.5 ms
GluN1–1b AC1/BC2; [7]
  τfast: 47 ± 4 ms
  τslow: 160 ± 25 ms
GluN1–1b AC1/BC2; [8]
  % fast: 69 ± 12%
GluN1–1b AC1/BC2; [5]
  τw: 74 ± 5 ^*^,#,$ ms
GluN1–1b B/B; [4]
  rise time (10–90%): 10.3 ± 1.5 ms
GluN1–1b B/B; [7]
  τfast: 81 ± 8 ms
  τslow: 208 ± 49 ms
GluN1–1b B/B; [8]
  % fast: 58 ± 12%
GluN1–1b B/B; [5]
  τw: 155 ± 19 ^*^,$ ms
GluN1–1b BC1/BC2; [4]
  rise time (10–90%): 8.3 ± 1.6 ms
GluN1–1b BC1/BC2; [7]
  τfast: 101 ± 15 ms
  τslow: 360 ± 89 ms
GluN1–1b BC1/BC2; [8]
  % fast: 84 ± 6%
GluN1–1b BC1/BC2; [5]
  τw: 140 ± 10 ms and 138 ± 13 ^*^,$ ms
GluN1–1b BC1/DC2; [4]
  rise time (10–90%): 9.2 ± 1.3 ms
GluN1–1b BC1/DC2; [7]
  τfast: 127 ± 31 ms
  τslow: 634 ± 132 ms
GluN1–1b BC1/DC2; [8]
  % fast: 50 ± 15%
GluN1–1b BC1/DC2; [5]
  τw: 290 ± 120 ms and 288 ± 22 ^*^,#,$ ms
GluN1–1b D/D; [4]
  rise time (10–90%): 3.5 ± 0.4 ms
GluN1–1b D/D; [7]
  τfast: 245 ± 32 ms
  τslow: 1609 ± 148 ms
GluN1–1b D/D; [8]
  % fast: 40 ± 7%
GluN1–1b D/D; [5]
  τw: 992 ± 68 ^*^,# ms
GluN1–1b DC1/DC2; [4]
  rise time (10–90%): 4.5 ± 0.7 ms
GluN1–1b DC1/DC2; [7]
  τfast: 256 ± 92 ms
  τslow: 1399 ± 141 ms
GluN1–1b DC1/DC2; [8]
  % fast: 14 ± 4%
GluN1–1b DC1/DC2; [5]
  τw: 1230 ± 90 ms and 1230 ± 86 ^*^,# ms
